Measured values from patent publication US20150164916A1, “ROFLUMILAST COMPOSITIONS FOR THE TREATMENT OF COPD” (Forest Laboratories Holdings Ltd., priority 2012, published 2015).

What was measured:
Assay type in all cases: cell-based, human
[1] = test system: MMP-9 release; test: LPS- or CSE-induced MMP-9 release in isolated peripheral blood neutrophils (LUMINEX); conditions: 6 h
Experimental: (§1) Neutrophils and monocytes were isolated from peripheral venous blood by standard laboratory procedures. In brief, peripheral venous blood was mixed with dextran 500 at 3% (in 0.9% saline) in a proportion of 2:1. This mixture was incubated at room temperature for 30 min until erythrocytes were sedimented. The upper phase was carefully collected and added on Ficoll-Paque Histopaque 1077 (Amershan Pharmacia Biotech, Barcelona, Spain) density gradient in a proportion of 3:1. The two phases generated were centrifuged at 150 g, 4° C. for 30 min. Thus, the interface was collected to isolate monocytes, and the pellet obtained (which is consisted a mixture of neutrophils and low proportion of residual erythrocytes and traces of eosinophils and basophils) was resuspended in an erythrocyte lysis buffer (Biolegend, UK) for 5 min in ice. Cell suspension was washed two times with phosphate buffer (PBS).
CSE was prepared as previously outlined (Milara et al.; Ortiz et al.). Briefly, the smoke of a research cigarette (2R4F; Tobacco Health Research, University of Kentucky, KY, USA) was generated by a respiratory pump (Apparatus Rodent Respirator 680; Harvard, Germany) through a puffing mechanism related to the human smoking pattern (3 puff/min; 1 puff 35 ml; each puff of 2 s duration with 0.5 cm above the filter) and was bubbled into a flask containing 25 ml of pre-warmed (37° C.) RPMI 1640 culture medium supplemented as describe above. The CSE solution was sterilized by filtration through a 0.22-μm cellulose acetate sterilizing system (Corning, N.Y.). The resultant CSE solution was considered to be 100% CSE and was used for experiments within 30 min of preparation. CSE 10% corresponds approximately to the exposure associated with smoking two packs per day (Su et al., 1998). The quality of the prepared CSE solution was assessed based on the absorbance at 320 nm, which is the specific absorption wavelength of peroxynitrite. Stock solutions with an absorbance value of 3.0±0.1 were used. To test for cytotoxicity from CSE, isolated neutrophils and monocytes were treated with CSE concentrations of up to 5% for 24.
(§2) Peripheral neutrophil cell suspension was adjusted to 500×10^3 cells per well in 24-well plates and incubated in RPMI culture medium for 1 h into the incubator at 37° C., 5% CO2. […] Both the stimulus and drug were remained together for 6 h. Supernatants were collected and centrifuged at 120 g for 5 min, and the free-cell supernatant was used to measure IL-8, MMP-9, IL-1β, GM-CSF and CCL-5.
(§3) IL-8 was determined by using commercially available enzyme-linked immunosorbent assay kit for IL-8 (R&D Systems, UK) according to the manufacturer's protocol. MMP-9, IL-1β, GM-CSF and CCL-5 were measured by LUMINEX technology according to the manufacturer's protocol.
(§4) Data were presented as mean±SEM. IC50 values were calculated for each drug and their combinations. Statistical analysis of results was carried out by analysis of variance (ANOVA) followed by Bonferroni test, by Student's t test, or by non-parametric tests as appropriate (GraphPad Software Inc, San Diego, Calif., USA). Significance was accepted when P<0.05. For clinical correlations of lung function and gene expression from neutrophils the non-parametric Spearman correlation analysis was carried out.

[2] = test system: IL-1β release; test: LPS-induced IL-1β release in isolated peripheral blood neutrophils (LUMINEX); conditions: LPS (1 μg/ml), 6 h
Experimental: as §1, §2, §3, §4

[3] = test system: GM-CSF release; test: LPS-induced GM-CSF release in isolated peripheral blood neutrophils (LUMINEX); conditions: LPS (1 μg/ml), 6 h
Experimental: as §1, with “The upper phase was carefully collected and added on Ficoll-Paque Histopaque 1077 (Amershan Pharmacia Biotech, Barcelona, Spain) density gradient in a proportion of 3:1.” left out
as §2, §3, §4

[4] = test system: MKP1; test: Real time RT-PCR of MKP1 mRNA in CSE-stimulated neutrophils from COPD patients; conditions: RNO 1 nM and 1 μM, DEX 1 μM, RNO 1 nM plus DEX 1 μM, NAC 1 mM for 1 h, then CSE 5% 6 h
Experimental: (§5) Neutrophils and monocytes were isolated from peripheral venous blood by standard laboratory procedures. In brief, peripheral venous blood was mixed with dextran 500 at 3% (in 0.9% saline) in a proportion of 2:1. This mixture was incubated at room temperature for 30 min until erythrocytes were sedimented. The upper phase was carefully collected and added on Ficoll-Paque Histopaque 1077 (Amershan Pharmacia Biotech, Barcelona, Spain) density gradient in a proportion of 3:1. The two phases generated were centrifuged at 150 g, 4° C. for 30 min. […]
(§6) CSE was prepared as previously outlined (Milara et al.; Ortiz et al.). […] The quality of the prepared CSE solution was assessed based on the absorbance at 320 nm, which is the specific absorption wavelength of peroxynitrite. Stock solutions with an absorbance value of 3.0±0.1 were used. […]
(§7) Total RNA was obtained from isolated neutrophils under basal conditions or after different drug and stimulation periods defined above by using TriPure® Isolation Reagent (Roche, Indianapolis, USA). […] Relative quantification of these transcripts was determined with the 2^−ΔΔCt method using glyceraldehyde phosphate dehydrogenase (GAPDH) as endogenous control (Applied Biosystems; 4352339E) and normalized to control group as previously described (Milara et al., 2009).
(§8) Then, mRNA was isolated and quantified for different genes.

[5] = test system: MIF; test: Real time RT-PCR of MIF mRNA in CSE-stimulated neutrophils from COPD patients; conditions: RNO 1 nM and 1 μM, DEX 1 μM, RNO 1 nM plus DEX 1 μM, NAC 1 mM for 1 h, then CSE 5% 6 h
Experimental: as §5, §6, §7, §8

[6] = test system: PI3Kδ; test: Real time RT-PCR of PI3Kδ expression in CSE-stimulated neutrophils from COPD patients; conditions: RNO 1 nM and 1 μM, DEX 1 μM, RNO 1 nM plus DEX 1 μM, NAC 1 mM, CSE 5%
Experimental: as §5, §6, §7, §8

[7] = CSE 5%, neutrophils from COPD patients
[8] = CSE 5%, neutrophils from HEALTHY
[9] = LPS (1 μg/ml), neutrophils from COPD patients
[10] = LPS (1 μg/ml), neutrophils from HEALTHY

-log IC50, inhibition of MMP-9 release [1, 7]: 8.76 ± 0.11 | -log IC50, inhibition of MMP-9 release [1, 9]: 7.64 ± 0.23 | -log IC50, inhibition of IL-1β release ([2]; neutrophils from COPD patients): 7.82 ± 0.21 | -log IC50, inhibition of GM-CSF release ([3]; neutrophils from COPD patients): 8.10 ± 0.22
SMILES: O=C(Nc1c(Cl)c[n+]([O-])cc1Cl)c1ccc(OC(F)F)c(OCC2CC2)c1 [RNO, roflumilast N-oxide]
Maximal % Inhibition of MMP-9 release [1, 7]: 62.58 ± 2.28% | -log IC50, inhibition of MMP-9 release [1, 8]: 8.87 ± 5.6 | Maximal % Inhibition of MMP-9 release [1, 8]: 64.8 ± 5.64% | Maximal % Inhibition of MMP-9 release [1, 9]: 94.61 ± 11.82% | -log IC50, inhibition of MMP-9 release [1, 10]: 7.66 ± 0.22 | Maximal % Inhibition of MMP-9 release [1, 10]: 98.9 ± 12.6% | Maximal % Inhibition of IL-1β release ([2]; neutrophils from COPD patients): 66.69 ± 6.86% | -log IC50, inhibition of IL-1β release ([2]; neutrophils from HEALTHY): 7.73 ± 0.22 | Maximal % Inhibition of IL-1β release ([2]; neutrophils from HEALTHY): 67.08 ± 6.63% | Maximal % Inhibition of GM-CSF release ([3]; neutrophils from COPD patients): 86.6 ± 8.04% | -log IC50, inhibition of GM-CSF release ([3]; neutrophils from HEALTHY): 8.25 ± 0.21 | Maximal % Inhibition of GM-CSF release ([3]; neutrophils from HEALTHY): 78.87 ± 6.57% | effect on CSE-induced down-regulation of MKP1 mRNA expression [4]: reversed the effect of CSE | effect on CSE-induced increase of MIF mRNA expression [5]: reversed the effect of CSE | effect on CSE-induced PI3Kδ upregulation [6]: inhibited
